Measured values as given in US20260144797A1, “METHODS OF REDUCING OR PREVENTING METASTASES” (FOGHORN THERAPEUTICS INC., priority 2022, published 2026).

Assays:
Assay type in all cases: in vivo
[1] = tested on: uveal melanoma (UM) CDX models MP-41 and MP-46; test: Differential gene expression by RNA-seq in UM CDX models (Example 1); settings: MP-41 and MP-46 CDX; 0.5-3 mpk QD or BID; 5 days; RNA-seq (FIG. 3)
Procedure: Uveal melanoma can be classified into Class 1 or Class 2 tumors based on the DecisionDx®-UM gene expression profiling (GEP) test, a widely used prognostic test to predict individual risk of metastasis in patients with uveal melanoma. Class 1 and 2 tumors are associated with low and high risk of metastasis, respectively. Gene expression profiling (GEP) Class 2 (dark blue), GEP Class 1 (light blue), PRAME (green), and BAP1 (orange) expression were measured in three uveal melanoma (UM) CDX models: 92-1, MP-41, and MP-46 (FIG. 2). GEP class 1 and GEP class 2 are defined in FIG. 1.
Differential gene expression was measured by RNA-seq in two uveal melanoma (UM) CDX models: MP-41 and MP-46 (FIG. 3). UM CDX model MP-41 was divided into four cohorts—cohort one was treated with 0.5 mpk of Compound A twice a day (BID), cohort two was treated with 1 mpk of Compound A once a day (QD), cohort three was treated with 1 mpk of Compound A twice a day, and cohort 4 was treated with 2 mpk of Compound A once a day. UM CDX model MP-46 was divided into six cohorts —cohort one was treated with 0.5 mpk of Compound A twice a day (BID), cohort two was treated with 1 mpk of Compound A once a day (QD), cohort three was treated with 0.75 mpk of Compound A twice a day, cohort 4 was treated with 1.5 mpk of Compound A once a day, cohort five was treated with 1.5 mpk of Compound A twice a day, and cohort six was treated with 3 mpk of Compound A twice a day. All treatments ended at 5 days, and animals were sacrificed. GEP Class 1 (green) comprises 8 genes that are high in Class 1 (low risk), and GEP Class 2 (blue) comprises 4 genes that are high in Class 2 (higher risk). PRAME (grey) positivity is associated with poor prognosis in several malignancies, including UM.

[2] = tested on: uveal melanoma (UM) CDX model MP-41; test: Differential gene expression by RNA-seq in UM CDX model MP-41 (Example 2); settings: MP-41 CDX; 0.5-2 mpk QD or BID; 4 or 5 days; RNA-seq (FIG. 4)
Procedure: Differential gene expression was measured by RNA-seq in uveal melanoma (UM) CDX model: MP-41 (FIG. 4). This CDX model is a BAP1 intact but aggressive uveal melanoma model. UM CDX model MP-41 was divided into four cohorts—cohort one was treated with 0.5 mpk of Compound A twice a day (BID), cohort two was treated with 1 mpk of Compound A once a day (QD), cohort three was treated with 1 mpk of Compound A twice a day, and cohort 4 was treated with 2 mpk of Compound A once a day. All treatments ended at 4 or 5 days, and animals were sacrificed.

[3] = tested on: uveal melanoma (UM) CDX models 92-1, MP-41, and MP-46; test: Differential gene expression by RNA-seq, MITF/SOX10 pathway (Example 3); settings: 92.1 and MP-46: 1.5 mpk QD, 6 days; MP-41: 2 mpk daily, 4 days; RNA-seq (FIG. 5)
Procedure: Differential gene expression was measured by RNA-seq in three uveal melanoma (UM) CDX models: 92-1, MP-41, and MP-46 (FIG. 5 and FIG. 6). UM CDX models 92.1 and MP-46 were treated with 1.5 mpk of Compound A, daily (QD), for 6 days, and then animals were sacrificed (FIG. 5). UM CDX model MP-41 was treated with 2 mpk of Compound A, daily, for 4 days, and then animals were sacrificed (FIG. 5). Expression of SOX10, MITF (PD markers) and their downstream targets: melanin pathway markers MLANA, PMEL, and TYR were analyzed. Cyclin D1 is a cell proliferation marker, and BRM and BRG1 were analyzed for candidate selection.

MP-41 CDX tumor = test: Immunohistochemistry of MP-41 CDX tumor slices
Procedure: Representative MP-41 CDX tumor slices were analyzed after 5 days of treatment with 2 mpk of Compound A (OnTx) or a Vehicle (Veh), administered daily (FIGS. 7A and 7B).

[4] = MP-41 xenograft studies (FIGS. 7A and 7B)

COC[C@@H](NC(=O)c1ccn(S(C)(=O)=O)c1)C(=O)Nc1nc(-c2cccc(N3C[C@@H](C)O[C@@H](C)C3)n2)cs1 (stereo in doubt) [Compound A, N-(1-((4-(6-(2,6-dimethylmorpholino)pyridin-2-yl)thiazol-2-yl)amino)-3-methoxy-1-oxopropan-2-yl)-1-(methylsulfonyl)-1H-pyrrole-3-carboxamide]
DecisionDx-UM Gene Expression Profile (GEP) [1]: positive shift
PRAME expression [1]: decrease
higher risk profile Class 2 genes expression [1]: decrease
BAP1 expression [2]: subtle upregulation
GDF15 expression [2]: dose-dependent downregulation
PROS1 expression [2]: dose-dependent downregulation
MITF expression [3]: sustained downregulation
SOX10 expression [3]: sustained downregulation
melanoma-specific downstream targets of MITF and SOX10, expression [3]: sustained downregulation
proliferation marker Cyclin D1 (IHC) (MP-41 CDX tumor; MP-41 CDX, 2 mpk daily, 5 days (FIGS. 7A and 7B)): decreases with treatment
melanin pathway markers downstream of MITF/SOX10 signaling (IHC) (MP-41 CDX tumor; [4]): Decrease
proliferation markers (IHC) (MP-41 CDX tumor; [4]): Decrease
